The record followed here is patent US20250163057A1, “DCN-1 MODULATING COMPOUNDS AND METHODS OF USE THEREOF” (Cellarity, Inc., priority 2023, published 2025).

In the assay the test system is fetal hemoglobin protein. The experiment in a line: HbF HPLC Cell Culture Assay. As to conditions: for Hemoglobin HPLC Ymax obs (%): relative to a control compound; for EC50: 336 h, HbF induction, Day 14 of culture. It is filed as cell-based. As for the experimental part: A Cell Culture Assay was performed to evaluate the ability of compounds to induce fetal hemoglobin in a cell culture. The amount fetal hemoglobin protein induced was measured by HPLC.
Cell culture began on Day −4 (thaw day). Thaw buffer was prepared by sterile filtering 6 mL of Human Serum Albumin and 144 mL of PBS to make sterile 1% I/PBS. Cells were removed from liquid nitrogen storage and mostly thawed in a 37° C. water bath. Once the ice in the cryovials was melted, cells were transferred quickly into a 50 mL conical tube. Cryovial was rinsed once with thaw buffer and buffer was transferred over to the conical tube as well. Next, doubling volumes of thaw buffer was added to the conical and gently swirled for ˜30 seconds to one minute (for example: 2 mL was added and swirled, then 4 mL, then 8 mL, and so on) until the volume in the conical is 32 mL. Cells and buffer were centrifuged at 300G for 8 minutes, and the supernatant was aspirated. Another 32 mL of thaw buffer was added slowly, swirling the tube. The tube was again centrifuged at 300G for 8 minutes and the supernatant was aspirated. Cells were counted by resuspending in 1 mL of expansion media and counting with AOPI to determine the concentration of cells/mL.
On day 2, Passage & Treatment Day, each cell culture well was counted. Next fresh CD34 Expansion Media was made which contained StemSpan SFEM, CC100 and TPO all from StemCell technologies. Appropriate volume of cells was collected, centrifuged at 300 g and resuspended in fresh media. Cells were plated in treatment format at a density of 200,000 cells/ml, 25,000 cells/well. Finally, they were treated with test compounds as well as positive and negative controls.
On Days 0, 3 & 5 the same process was carried out. First, each cell culture well was counted. Next Phase 1 Erythroid Differentiation Media was freshly made, which contained StemSpan SFEM, 2.5 U/ml EPO, 0.5 mg/ml Holo-TF, 1× Glutamax, 5 μl/ml chemically defined lipid mixture, 10 ng/ml insulin, 50 ng/ml SCF, 10 ng/ml IL-3. Appropriate volume of cells was collected, centrifuged at 300 g and resuspended in fresh media. Cells should now be in fresh wells at a density of 100,000 cells/ml. 60,000 cells, 60,000 cells and 100,000 cells for days 0, 3, 5 respectively. Finally, fresh compound was added to each well at each timepoint (Days 0, 3 & 5).
On Day 7 media and cell culture density changes. Each cell culture well was counted. Next, Phase 2 Erythroid Differentiation Media was freshly made, which contains StemSpan SFEM, 2.5 U/ml EPO, 0.5 mg/ml Holo-TF, 1× Glutamax, 5 μl/ml chemically defined lipid mixture, 10 ng/ml insulin, 50 ng/ml SCF. Appropriate volume of cells was collected, centrifuged at 300 g and resuspended in fresh media. Cells were plated in fresh wells at a density of 500,000 cells/ml, 300,000 cells/well. Finally, fresh compound was added to each well at Day 7 timepoint.
On Day 10 media formulation is once again changed. Each cell culture well was counted. Fresh Phase 3 Erythroid Differentiation Media was made which contains StemSpan SFEM, 2.5 U/ml EPO, 0.5 mg/ml Holo-TF, 1× Glutamax, 5 μl/ml chemically defined lipid mixture, 10 ng/ml insulin. Appropriate volume of cells was collected, centrifuged at 300 g and resuspended in fresh media. Cells were plated in fresh wells at a density of 500,000 cells/ml, 500,000 cells/well. Finally, fresh compound was added to each well at Day 10 timepoint.
On Day 12 the cell density is once again changed. Each cell culture well was counted. Fresh Phase 3 Erythroid Differentiation Media was made. Appropriate volume of cells was collected, centrifuged at 300 g and resuspended in fresh media. Cells were plated in fresh wells at a density of 1,000,000 cells/ml, 1,000,000 cells/well. Finally fresh compound was added to each well.
Day 14 (18th day of experiment) refers to the terminal day of culture. Each cell culture well was counted. Next between 150K and 650K cells were placed in a uniquely labeled 1.5 ml standard tube. […]

Consider `CCN1C(=O)[C@@H](NC(=O)c2cccc(C(F)(F)F)c2)[C@@H](c2ccc(F)cc2)c2c(C(=O)N3CCC[C@H]3C#N)nn(-c3ccccc3)c21` (mixture of isomers) [Compound I-34], for which the “Hemoglobin HPLC Ymax obs (%)” value was “++ (Hemoglobin HPLC Ymax greater than 65.0 and less than or equal to 100.0)”.

Consider `CCN1C(=O)[C@@H](NC(=O)c2cccc(C(F)(F)F)c2)[C@@H](c2ccc(F)cc2)c2c(C(=O)N3CS(=O)(=O)C[C@H]3C#N)nn(C3CCOCC3)c21` (mixture of isomers) [Compound I-661, N-((4S,5S)-3-(4-cyano-1,1-dioxidothiazolidine-3-carbonyl)-7-ethyl-4-(4-fluorophenyl)-6-oxo-1-(tetrahydro-2H-pyran-4-yl)-4,5,6,7-tetrahydro-1H-pyrazolo[3,4-b]pyridin-5-yl)-3-(trifluoromethyl)benzamide], for which the EC50 – broadly, the midpoint of the concentration-response curve – is above 200 nM; the “Hemoglobin HPLC Ymax obs (%)” value is “++ (Hemoglobin HPLC Ymax greater than 65.0 and less than or equal to 100.0)”.

As for `CCN1C(=O)[C@@H](NC(=O)c2cccc(C(F)(F)F)c2)[C@@H](c2ccc(F)cc2)c2c(CNC(=O)/C=C/C(=O)OC)nn(-c3ccccc3)c21` (racemic) [Compound I-3], the EC50 was 50 to 200 nM; the “Hemoglobin HPLC Ymax obs (%)” value was “++ (Hemoglobin HPLC Ymax greater than 65.0 and less than or equal to 100.0)”.

Regarding `C=C(CN1CCC1)C(=O)NCc1nn(-c2ccccc2)c2c1[C@H](c1ccc(F)cc1)[C@H](NC(=O)c1cccc(C(F)(F)F)c1)C(=O)N2CC` (racemic) [Compound I-49, rac-N-((4R,5R)-3-((2-(azetidin-1-ylmethyl)acrylamido)methyl)-7-ethyl-4-(4-fluorophenyl)-6-oxo-1-phenyl-4,5,6,7-tetrahydro-1H-pyrazolo[3,4-b]pyridin-5-yl)-3-(trifluoromethyl)benzamide], the EC50 is at most 50 nM; the “Hemoglobin HPLC Ymax obs (%)” value is “++ (Hemoglobin HPLC Ymax greater than 65.0 and less than or equal to 100.0)”.

As for `CCN1C(=O)[C@@H](NC(=O)c2cccc(C(F)(F)F)c2)[C@@H](c2ccc(F)cc2)c2c(NC(=O)C3=CCC3)nn(-c3ccccc3)c21` (racemic) [Compound I-152], the 50% effective concentration (EC50) is above 200 nM; the “Hemoglobin HPLC Ymax obs (%)” value is “++ (Hemoglobin HPLC Ymax greater than 65.0 and less than or equal to 100.0)”.

As to `CCN1C(=O)[C@@H](NC(=O)c2cccc(C(F)(F)F)c2)[C@@H](c2ccc(F)cc2)c2c(CN(C)C#N)nn(-c3ccccc3)c21` [Compound I-92], the EC50 was above 200 nM; the “Hemoglobin HPLC Ymax obs (%)” value is “+ (Hemoglobin HPLC Ymax greater than or equal to 0.0 and less than or equal to 65.0)”.

As for `CCN1C(=O)[C@@H](NC(=O)c2cccc(C(F)(F)F)c2)[C@@H](c2ccc(F)cc2)c2c(C(=O)NC3(C#N)CC3)nn(-c3ccccc3)c21` [Compound I-112], the concentration giving a half-maximal response (EC50) was above 200 nM and the “Hemoglobin HPLC Ymax obs (%)” value was “+++ (Hemoglobin HPLC Ymax greater than 100.0)”.

In the case of `C=C(CN1CCC1)C(=O)NCc1nn(-c2ccccc2)c2c1[C@@H](c1ccc(F)cc1)[C@H](NC(=O)c1cccc(C(F)(F)F)c1)C(=O)N2CC` [Compound I-139], the EC50 is at most 50 nM; the “Hemoglobin HPLC Ymax obs (%)” value is “++ (Hemoglobin HPLC Ymax greater than 65.0 and less than or equal to 100.0)”.

On to `CCN1C(=O)[C@@H](NC(=O)c2cccc(C(F)(F)F)c2)[C@@H](c2ccc(F)cc2)c2c(CNC#N)nn(-c3ccccc3)c21` [Compound I-140, N-[(4S, 5S)-3-[(cyanoamino)methyl]-7-ethyl-4-(4-fluorophenyl)-6-oxo-1-phenyl-4,5-dihydropyrazolo[3,4-b]pyridine-5-yl]-3-(trifluoromethyl) benzamide], for which the EC50 was above 200 nM; the “Hemoglobin HPLC Ymax obs (%)” value is “+ (Hemoglobin HPLC Ymax greater than or equal to 0.0 and less than or equal to 65.0)”.

As to `CCN1C(=O)[C@@H](NC(=O)c2cccc(C(F)(F)F)c2)[C@@H](c2ccc(F)cc2)c2c(C(=O)N3[C@H](C#N)C[C@H]4C[C@H]43)nn(-c3ccccc3)c21` [Compound I-277], the EC50 is at most 50 nM; the “Hemoglobin HPLC Ymax obs (%)” value is “++ (Hemoglobin HPLC Ymax greater than 65.0 and less than or equal to 100.0)”.

As for `CCN1C(=O)[C@@H](NC(=O)c2cccc(C(F)(F)F)c2)[C@@H](c2ccc(F)cc2)c2c(C(=O)N3CCC[C@H]3C#N)nn(-c3ccccc3)c21` [Compound I-278], the EC50 was above 200 nM; the “Hemoglobin HPLC Ymax obs (%)” value is “+ (Hemoglobin HPLC Ymax greater than or equal to 0.0 and less than or equal to 65.0)”.

Take `CCN1C(=O)[C@@H](NC(=O)c2cccc(C(F)(F)F)c2)[C@@H](c2ccc(F)cc2)c2c(C(=O)N3CCNCC3C#N)nn(C3CCOCC3)c21` (some centres unmarked) [Compound I-334]: the EC50 lay within 50 to 200 nM; the “Hemoglobin HPLC Ymax obs (%)” value is “++ (Hemoglobin HPLC Ymax greater than 65.0 and less than or equal to 100.0)”.

With `CCN1C(=O)[C@@H](NC(=O)c2cccc(C(F)(F)F)c2)[C@@H](C2CC2)c2c(C(=O)N3CC[C@H](OC)[C@H]3C#N)nn(C3CCOCC3)c21` [Compound I-418], the EC50 was at most 50 nM and the “Hemoglobin HPLC Ymax obs (%)” value was “+++ (Hemoglobin HPLC Ymax greater than 100.0)”.

On to `CCN1C(=O)[C@@H](NC(=O)c2cccc(C(F)(F)F)c2)[C@@H](C2CC2)c2c(C(=O)N(C)[C@H](C)C#N)nn(C3CCOCC3)c21` [Compound I-422], for which the EC50 lay in the range of 50 to 200 nM; the “Hemoglobin HPLC Ymax obs (%)” value was “++ (Hemoglobin HPLC Ymax greater than 65.0 and less than or equal to 100.0)”.

On to `CCN1C(=O)[C@@H](NC(=O)c2cccc(C(F)(F)F)c2)[C@@H](C2CCC2)c2c(C(=O)N3CCC[C@H]3C#N)nn(C3CCOCC3)c21` [Compound I-692], for which the EC50 is above 200 nM; the “Hemoglobin HPLC Ymax obs (%)” value was “++ (Hemoglobin HPLC Ymax greater than 65.0 and less than or equal to 100.0)”.
